Test results published in patent US7304129B2 (Imperial Innovations Limited, priority 2000, dated 2007).
Values joined by “and” are separate entries in the source; they are usually repeats but may differ in a detail not shown here. Equal entries are not always repeated. “Also recorded” adds a separate entry of the source. Positions of bridges follow the written chain, without caps; N, C: chain ends. Chains are numbered I, II in the order given. No end group written: not given here.

What was measured:
[1] = tested on: rat cerebellar granule neurons cultured on monolayers of NIH 3T3 fibroblasts; assay: in vitro neurite outgrowth co-culture assay (axon regeneration); type: cell-based
Protocol: An example of such an assay is a co-culture assay in which neurons are cultured on top of cellular monolayers for 16 hours, before being fixed and stained with a neuron-specific antibody. The mean length of the longest neurite per cell can then be determined by fluorescence microscopy using an appropriate image analysis programme. The neurons may be, for example, (in this case cerebellar granule cell neurons, hippocampal, dorsal root ganglion, olfactory, motor or dopaminergic neurons. The cellular monolayer is, for example NIH 3T3 fibroblasts.
Monolayers of NIH 3T3 fibroblasts were established by seeding 80,000 cells per well in Lab-Tek 8-chamber slides previously coated sequentially with poly-L-lysine and fibronectin and culturing them overnight in DMEM+10% FCS growth medium.
Cerebellum was dissected from post-natal day 2-4 rat pups and the meninges and extraneous tissue discarded. Cerebellum was chopped into small pieces and trypsinised for 10 minutes at 37° C. Trypsin was neutralised using growth medium and the cells pelletted at 1000×g for 7 minutes. Cerebellar neurons were then resuspended in SATO growth medium containing 2% FCS, counted, and plated on top of the fibroblast monolayer at a density of 1,500 neurons per well. After 16 hours, cocultures were fixed with 4% para-formaldehyde and stained with an anti-GAP43 neuron-specific antibody, which was a gift from Dr Graham Wilkin, Imperial College Department of Biochemistry, London, but any other neuron-specific marker can be used.
The mean neurite length of 150-200 neurons per well was determined using a fluorescent microscope and Zeiss KS300 imaging software.
Peptides A, A(d), B, C, D, E, and F were each incorporated in the SATO medium at a range of concentrations from 0 to 200 μg/ml. Nerve growth factor (NGF) and fibroblast growth factor (FGF2) were used as controls at the same range of concentrations.

[2] = tested on: NIH 3T3 fibroblasts; assay: survival of 3T3 fibroblasts in serum-free DMEM (MTS and morphologic method, Example 5a); type: cell-based
Protocol: NIH 3T3 fibroblasts were plated in each well of a 96-well microtitre plate at a density of 7,000 cells per well in DMEM containing 3% FCS and left to attach overnight. The following day the growth medium was removed and replaced with 0.1 ml DMEM supplemented with FGF or Peptide A(d) or both, eight wells for each condition. The negative control was DMEM alone (maximal cell death) and the positive control was supplementation with 0.5% FCS (maximal cell survival).
Six days later (seven days from first plating the cells), the relative number of living cells in each well was assessed by adding the mitochondrial substrate MTS, [3-(4,5-dmethylthiazol-2-yl)-5-(3-carboxymethoxyphenyl)-2-(4-sulphophenyl)-2H-tetrazolium, inner salt), for four hours before reading the optical density on a microtitre plate reader at a wavelength of 490 nm. The optical density gives a measure of the number of respiring cells present in each well at the end of the assay period.
In addition to the biochemical assay, survival was assessed qualitatively using a morphologic method in which cells were plated in 8-chamber Lab Tek slides in DbEM alone (negative control), or DMEM supplemented with 0.5 ng/ml FGF2; 0.5% FCS (positive control), or 25-200 μg/ml Peptide A(d). After three days the cells were fixed with 4% paraformaldehyde, permeablised with methanol and stained with TRITC-conjugated falloidin to visualise the cell cytoskeleton.

[3] = tested on: cerebellar neurons; assay: survival of neurons (Example 5b); type: cell-based
[4] = tested on: NIH 3T3 cells; assay: NIH 3T3 cell survival MTS assay in serum-free DMEM (Example 6); type: cell-based
Protocol: NIH 3T3 cells are plated in 96-well plates at a density of 5,500 cells/well in 100 μl DMEM containing 0.5% FCS. After 24 hours, this medium is aspirated from the wells and replaced with 100 μl serum-free DMEM alone, or supplemented with 0.5% FCS (positive control), or a single potential survival factor, with four identical wells set up for each condition. The cells are left for up to seven days at 37 degrees and 8% CO2 before the cell survival is determined using an MTS assay. In this assay 20 μl of MTS substrate is added to each 100 μl well and the plate left in the incubator for up to four hours. Respiring cells produce a coloured reaction product that can be read using a spectrophotometer at 490 nm. […] The mean absorbance at 490 nm+/−SEM is determined for the four identically set up wells. Wells containing a known survival factor such as insulin will contain more living cells after three days than cells cultured in unsupplemented medium.

[5] = tested on: L6 cell line; assay: survival of L6 cell line lacking FGF receptors; type: cell-based; conditions: FGF2 0.1, 1 and 10 ng/ml; Peptide A(d) 100 and 400 μg/ml
Protocol: FIG. 2d compares the effects of DMEM, FCS, FGF2 at 0.1, 1 and 10 ng/ml, insulin at 0.5 and 5 μg/ml, and Peptide A(d) at 100 and 400 μg/ml.

[6] = tested on: MAP kinase; assay: Western blot for tyrosine phosphorylated MAP kinase in NIH 3T3 cells; type: cell-based; conditions: peptide 400 μg/ml, 10 minutes
Protocol: A Western blot (FIG. 2f) was obtained as follows: one million NIH 3T3 cells were serum starved for 24 hours then challenged with the following agents: DMEM, 10% FCS, 0.1 ng/ml FGF2, 1 ng/ml FGF2, 10 ng/ml FGF2, 5 μg/ml insulin, 400 μg/ml peptide 52 for 10 minutes at 37 degrees Celsius before being lysed in sample buffer and band separated by PAGE. Proteins were transferred to PVDF membranes and probed with an antibody that recognises tyrosine phosphorylated MAP kinse (upper panel).

[7] = tested on: NIH 3T3 cells; assay: NIH 3T3 survival and morphology, TRITC-conjugated phalloidin staining; type: cell-based; conditions: three days; insulin 0.5 pg/ml, FGF2 0.1 ng/ml, Peptide A(d) 10 ng/ml
[8] = tested on: Oligodendrocyte progenitors (O4 positive); type: cell-based, rat; conditions: six days in culture
Text: Oligodendrocyte progenitors (O4 positive) are purified from postnatal day 4 rat cerebral cortex. First a trypsinised preparation of cortical cells is dissociated to single cell suspension and pre-plated to remove unwanted adherent cells such as microglia and macrophages. Oligodendrocyte progenitors express the O4 antigen, and can be purified by panning on petri-dishes coated with anti O4 antibodies. Unbound cells are removed by gentle washing, then O4 positive cells are removed by triturating them off the plate with DMEM containing 1% FCS, through a flame-polished pasteur pipette. O4 positive cells are plated on polyornithine-coated glass coverslips at a density of 500,000 cells per well in minimal growth medium containing insulin or the peptide Ac-DRVEPYSSTA[lys]2[lys] i.e. [{Ac-DRVEPYSSTA}2-K]2-K-OH, Peptide A(d), for six days, before being fixed and stained with the anti O4 antibody. Viable O4 positive cells are counted for each condition

[9] = tested on: cells growing in the presence of FGF2 or Peptide A(d); assay: mitogenesis by observation of cells growing (rounding-up, cell number); type: cell-based
Text: FGF stimulates axonal regeneration, cell survival and mitogenesis. […] This can be seen by the failure of Peptide A(d)-treated cells to show the rounding-up characteristic of cell division, and there is not the increase in cell number observed in the presence of a mitogenic stimulation by FGF2.

[10] = tested on: NIH3T3 cells; assay: cell survival/proliferation at two plating densities; conditions: 11,000 cells per well; FGF2 10 ng/ml
Text: FGF2 is a mitogen for a range of cells, including NIH3T3 cells.

[11] = tested on: cells in S phase (bromodeoxyuridine incorporation into DNA); assay: bromodeoxyuridine incorporation (entry into S phase) mitogenicity assay; type: cell-based; conditions: peptide, any of the concentrations tested
Protocol: The mitogenicity of an agent can be determined by testing its ability to stimulate entry of cells into ‘S’ phase in readiness for cell division. This is done by standard methodology and involves incubating cells in the presence of a potential mitogen in DMEM supplemented with bromodeoxyuridine. After six hours the cells are fixed and stained with an antibody recognising bromodeoxyuridine. Cells in S phase can be distinguished by their incorporation of bromodeoxyuridine into DNA.

mitogenesis (observation of cells) [9]: does not stimulate mitogenesis
Substance: I: Ac-DRVEPYSSTAKK / II: Ac-DRVEPYSSTAK / III: Ac-DRVEPYSSTA / IV: Ac-DRVEPYSSTA (amide I:11-IV:C, I:12-II:C, II:11-III:C) [Peptide A(d), [{Ac-DRVEPYSSTA}2-K]2-K-OH]
concentration stimulating maximal neurite outgrowth [1]: 400 nM
stimulation of neurite outgrowth (in words) ([1]; agent included in coculture medium, 16 hour culture): bi-phasic dose-response curve
peptide concentration giving maximal effects in neurite outgrowth assay ([1]; rat cerebellar neurons on 3T3 monolayer, 16 hours): 1.5-2.5 μg/ml and ~0.4 μM
potency in stimulating neurite outgrowth relative to the monomeric peptide ([1]; versus monomeric peptide): 250 times
cell survival with combination ([2]; DMEM supplemented with Peptide A(d) together with FGF2): greater than with either agent alone
survival of 3T3 fibroblasts ([2]; Peptide A(d) alone at 25 μg/ml): stimulated the survival of 3T3 fibroblasts to the same extent as 0.125 ng/ml FGF2
stimulation of survival compared with positive control 0.5% FCS ([2]; all concentrations (25-200 μg/ml)): at least as good as the positive control
survival of cerebellar neurons [3]: stimulate survival of cerebellar neurons
survival of NIH3T3 cells in serum-free conditions (in words) ([4]; FGF2 only at low concentrations): stimulates dose-dependent survival
time over which survival is stimulated in serum-free conditions ([4]; maximum time tested): at least seven days
survival of L6 cell line [5]: unable to stimulate the survival
MAP kinase activation [6]: do not
MAP kinase activation ([6]; listed as Ac-DRVEPYSSTA[lys]2[lys]): do not
MAP kinase activation ([6]; listed as peptide 52): did not
cell survival / morphology [7]: stimulate cell survival
oligodendrocyte survival (in words) [8]: dose-dependent survival effect
cell proliferation [10]: does not stimulate proliferation
mitogenicity (entry into S phase) [11]: unable to stimulate entry into S phase; also recorded: not mitogenic at any of the concentrations tested
